Like-named read-outs stand apart in the source and are kept apart here.
Experiments:
mice [1] = system: mice
animals = details: ref Post et al. in press; cited from earlier work
patients = details: ref Post et al. in press; cited from earlier work
rodents = details: ref Jenck et al., 1997, 2000; cited from earlier work
mice [2] = assay: Forced swim test; type: in vivo, mouse; details: for FST activity (Table 1 summary): in vivo, mice
NOP(+/+) mice = assay: Elevated plus maze; type: in vivo, mouse; details: Ro 65–6570 0.1 mg/kg, i.p.; 8–10 mice per group
mice [3] = assay: Elevated plus maze; type: in vivo, mouse; details: for EPM activity (Table 1 summary): in vivo, mice
NOP(−/−) mice = assay: Elevated plus maze; type: in vivo, mouse; details: Ro 65–6570 0.1 mg/kg, i.p.; 8–10 mice per group
[4] = target: T1, NOP/G-protein interaction (NOP receptor) (Homo sapiens, UniProt P41146); details: 2015, cited from earlier work; for antagonism of N/OFQ effects, NOP/G protein / rank order of antagonist potency, NOP/G protein: against N/OFQ, ref Camarda et al., 2009, Malfacini et al.
[5] = target: T2, NOP/β-arrestin 2 interaction (NOP receptor) (Homo sapiens, UniProt P41146); details: ref Malfacini et al., 2015, cited from earlier work; for antagonism of N/OFQ stimulated NOP/β-arrestin 2 interaction: against N/OFQ
β-arrestin 2(−/−) mice [6] = details: ref Beaulieu et al., 2008, David et al., 2009; cited from earlier work
β-arrestin 2(−/−) mice [7] = details: chronic treatment, various assays; ref David et al., 2009; cited from earlier work
wild type mice = details: ref Beaulieu et al., 2008; cited from earlier work
[8] = target: T2, NOP/β-arrestin 2 interaction (NOP receptor); assay: BRET assay, NOP/β-arrestin 2 interaction; type: cell-based; details: relative to N/OFQ
[9] = target: T1, NOP/G-protein interaction (NOP receptor); type: biochemical

T2 sequence (P41146 whole entry): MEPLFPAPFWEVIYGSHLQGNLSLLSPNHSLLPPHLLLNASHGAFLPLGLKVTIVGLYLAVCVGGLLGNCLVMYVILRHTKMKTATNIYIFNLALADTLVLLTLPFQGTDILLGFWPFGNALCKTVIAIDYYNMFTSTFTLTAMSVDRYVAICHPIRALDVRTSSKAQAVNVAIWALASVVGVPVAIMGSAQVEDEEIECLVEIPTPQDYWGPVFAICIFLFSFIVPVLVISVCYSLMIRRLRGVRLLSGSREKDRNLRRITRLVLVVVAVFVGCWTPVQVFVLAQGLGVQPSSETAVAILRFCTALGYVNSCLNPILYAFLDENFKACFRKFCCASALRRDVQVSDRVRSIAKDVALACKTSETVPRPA
T1 sequence (P41146 whole entry): as above

Compound: CC(C)[C@H]1CC[C@@H](N2CCC(N3C(=O)C(=O)c4ccccc43)CC2)CC1 [AT-090, 1-(1-(cis-4-isopropylcyclohexyl)piperidin-4-yl)indoline-2,3-dione]
- motor impairment in the rotarod test (mice [1]; AT-090 at the higher dose tested, i.p., Fig. S1): did not evoke any motor impairment

Compound: Cc1nn(-c2ncccc2CO)cc1CN1CCC2(CC1)OCC(F)(F)c1cc(Cl)sc12 [LY2940094]
- antidepressant effects, animals (animals): robust antidepressant effects
- antidepressant effects, patients (patients): robust antidepressant effects

Compound: O=C1NCN(c2ccccc2)C12CCN([C@@H]1CC[C@H]3CCCc4cccc1c43)CC2 [Ro64–6198]
- anxiolytic-like effects (rodents): produce anxiolytic-like effects

Compound: O=C1NCN(c2ccccc2)C12CCN(C1Cc3cccc4cccc1c34)CC2 (stereo not shown) [Ro 65–6570]
- motor impairment in the rotarod test (mice [1]; mouse, in vivo): did not produce any motor impairment
- immobility time (mice [2]; Ro 65–6570 0.1 mg/kg, i.p., 30 min prior, CD-1 mice, 11–16 per group): had no effect
- FST activity (Table 1 summary) (mice [2]): inactive
- anxiolytic-like effect, NOP(+/+) mice (NOP(+/+) mice): evident in NOP(+/+)
- time spent in and number of entries in the open arms (mice [3]; Ro 65–6570 0.01–0.1 mg/kg, i.p., 30 min prior, CD-1 mice, 12–16 per group): increased in a dose-dependent manner
- EPM activity (Table 1 summary) (mice [3]): anxiolytic
- anxiolytic-like effect, NOP(−/−) mice (NOP(−/−) mice): not NOP(−/−) mice

Compound: Cc1cccc2c1CC[C@H](CN1CCC(c3c(Cl)cccc3Cl)CC1)C[C@@H]2O [SB-612111, (−)-cis-1-methyl-7-[[4-(2,6-dichlorophenyl)piperidin-1-yl]methyl]-6,7,8,9-tetrahydro-5H-benzocyclohepten-5-ol]
- antagonism of N/OFQ effects, NOP/G protein [4]: antagonized N/OFQ effects showing a competitive type of interaction
- rank order of antagonist potency, NOP/G protein [4]: SB-612111 > UFP-101
- pharmacological activity, G protein (Table 1 summary), previously obtained ([4]; in vitro, G protein, ref Malfacini et al.): antagonist
- FST activity (Table 1 summary) (mice [2]): antidepressant
- behavior in the EPM, per se (mice [3]; SB-612111 10 mg/kg, i.p., 30 min, CD-1 mice, 10–12 per group): did not modify per se the mouse behavior
- block of the anxiolytic-like effects of Ro 65–6570 (mice [3]; SB-612111 10 mg/kg, i.p., 30 min pre-treatment, against Ro 65–6570 0.1 mg/kg i.p., CD-1 mice): completely block
- EPM activity (Table 1 summary) (mice [3]): inactive
- antagonism of N/OFQ stimulated NOP/β-arrestin 2 interaction [5]: able to antagonize
- pharmacological activity, β-arrestin (Table 1 summary), previously obtained ([5]; in vitro, β-arrestin): antagonist

Compound: CNCCC(Oc1ccc(C(F)(F)F)cc1)c1ccccc1 (stereo not shown) [fluoxetine]
- antidepressant effects, tail suspension test (β-arrestin 2(−/−) mice [6]): did not evoke antidepressant effects
- anxiolytic-like effects in β-arrestin 2(−/−) mice (β-arrestin 2(−/−) mice [7]): failed to induce anxiolytic-like effects

Compound: [Li] [lithium]
- antidepressant effects, tail suspension test (β-arrestin 2(−/−) mice [6]): did not evoke antidepressant effects
- latency to cross, light/dark test, wild type (wild type mice): reduces the latency to cross in wild type

Compound: [Nphe 1, Arg 14, Lys 15]N/OFQ-NH 2 [UFP-101]
- antagonism of N/OFQ effects, NOP/G protein [4]: antagonized N/OFQ effects showing a competitive type of interaction
- rank order of antagonist potency, NOP/G protein [4]: SB-612111 > UFP-101
- FST activity (Table 1 summary) (mice [2]): antidepressant
- EPM activity (Table 1 summary) (mice [3]): inactive
- antagonism of N/OFQ stimulated NOP/β-arrestin 2 interaction [5]: able to antagonize
- stimulation of NOP/β-arrestin 2 interaction (in words) [8]: inactive
- stimulation of NOP/G-protein interaction (in words) [9]: inactive

— article PMC5567672 (Neuropharmacology, 2016)
